# Laboratory results from patent US6642391B2, “Amycomycin, a process for its production and its use as a pharmaceutical” (priority 1999, dated 2003).
# Where two headings read alike, the source gives them in different places.
# Key:
# E.faecalis O2D2DU18 = experiment: MIC micro-dilutions test; assay type: cell-based; conditions: Enterococcus faecalis
# From the text: (§1) Lately, these strains have proven increasingly to be problem strains, i.e., those microorganisms that have become resistant to existing antibiotics. The superiority of the present compound in relation to other antibiotics is shown, for example, in the inhibition of vancomycin- and teicoplanin-resistant strains such as, for example, E. faecalis, E. faecium or E. gallinarium.
# E.faecalis O2D2HM9 = experiment: MIC micro-dilutions test; assay type: cell-based; conditions: Enterococcus faecalis
# From the text: as §1
# E.faecalis O2D2HT10 = experiment: MIC micro-dilutions test; assay type: cell-based; conditions: Enterococcus faecalis
# From the text: as §1
# E.faecalis O2D2UC5 = experiment: MIC micro-dilutions test; assay type: cell-based; conditions: Enterococcus faecalis
# From the text: as §1
# E.faecium O2D3AP9 = experiment: MIC micro-dilutions test; assay type: cell-based; conditions: Enterococcus faecium
# From the text: as §1
# E.faecium O2D3HM3 = experiment: MIC micro-dilutions test; assay type: cell-based; conditions: Enterococcus faecium
# From the text: as §1
# E.faecium O2D3HT12 = experiment: MIC micro-dilutions test; assay type: cell-based; conditions: Enterococcus faecium
# From the text: as §1
# E.gallinarium O2D0HM8 = experiment: MIC micro-dilutions test; assay type: cell-based; conditions: read-out: Minimum Inhibition Concentration
# From the text: as §1
# P.aeruginosa 1771 391HT2 = experiment: MIC micro-dilutions test; assay type: cell-based; conditions: Pseudomonas aeruginosa, 1771391HT2, Gram-negative, read-out: Minimum Inhibition Concentration
# From the text: as §1
# [1] = tested on: P.aeruginosa 1771m 391HT3; experiment: MIC micro-dilutions test; assay type: cell-based; conditions: Pseudomonas aeruginosa, 1771M391HT3, read-out: Minimum Inhibition Concentration
# From the text: as §1
# S.aureus 011CB20 = experiment: MIC micro-dilutions test; assay type: cell-based; conditions: Staphylococcus aureus
# From the text: as §1
# S.aureus 011DU5 = experiment: MIC micro-dilutions test; assay type: cell-based; conditions: Staphylococcus aureus
# From the text: as §1
# S.aureus 011GO64 = experiment: MIC micro-dilutions test; assay type: cell-based; conditions: Staphylococcus aureus
# From the text: as §1
# S.aureus 011GO71 = experiment: MIC micro-dilutions test; assay type: cell-based; conditions: Staphylococcus aureus
# From the text: as §1
# S.aureus 011GR91 = experiment: MIC micro-dilutions test; assay type: cell-based; conditions: Staphylococcus aureus
# From the text: as §1
# S.aureus 011HT18 = experiment: MIC micro-dilutions test; assay type: cell-based; conditions: Staphylococcus aureus
# From the text: as §1
# S.aureus 011HT1 = experiment: MIC micro-dilutions test; assay type: cell-based; conditions: Staphylococcus aureus
# From the text: as §1
# S.aureus 011HT3 = experiment: MIC micro-dilutions test; assay type: cell-based; conditions: Staphylococcus aureus
# From the text: as §1
# S.epidermidis 012GO20 = experiment: MIC micro-dilutions test; assay type: cell-based; conditions: Staphylococcus epidermidis; S.epidermidis 012GO20, oxa S ery S tet R; Gram-positive; read-out: Minimum Inhibition Concentration
# From the text: as §1
# S.epidermidis 012GO42 = experiment: MIC micro-dilutions test; assay type: cell-based; conditions: Staphylococcus epidermidis; S.epidermidis 012GO42, oxa R; Gram-positive; read-out: Minimum Inhibition Concentration
# From the text: as §1
# S.mitis O2mitGR16 = experiment: MIC micro-dilutions test; assay type: cell-based; conditions: Streptococcus mitis
# From the text: as §1
# S.pneumoniae 030BI2 = experiment: MIC micro-dilutions test; assay type: cell-based; conditions: Streptococcus pneumoniae
# From the text: as §1
# S.pyogenes O2A1FI6 = experiment: MIC micro-dilutions test; assay type: cell-based; conditions: Streptococcus pyogenes
# From the text: as §1
# S.pyogenes O2A1SJ1 = experiment: MIC micro-dilutions test; assay type: cell-based; conditions: Streptococcus pyogenes
# From the text: as §1
# S.pyogenes O2A1UC1 = experiment: MIC micro-dilutions test; assay type: cell-based; conditions: Streptococcus pyogenes
# From the text: as §1
# [2] = tested on: Staph.coag.negative 012HT5; experiment: MIC micro-dilutions test; assay type: cell-based; conditions: read-out: Minimum Inhibition Concentration
# From the text: as §1
# Strepto gr.G O2G0CB2 = experiment: MIC micro-dilutions test; assay type: cell-based; conditions: read-out: Minimum Inhibition Concentration
# From the text: as §1
# [3] = Physical-chemical characteristics: solubility; assay type: physicochemical; conditions: solvents: methanol, DMSO, pyridine
# From the text: The physical-chemical as well as the spectroscopic characteristics of the compound Amycomycin according to the invention are as follows: […]
# [4] = tested on: gram-positive bacteria such as Staphylo- and Enterococci; experiment: Antibacterial activity; assay type: cell-based; conditions: particularly against gram-positive bacteria such as Staphylo- and Enterococci
# From the text: as §1
# E.faecium O2D3IP2 = experiment: MIC micro-dilutions test; assay type: cell-based; conditions: Enterococcus faecium; E.faecium O2D3IP2, tei R van R ery R tet R; Gram-positive; read-out: Minimum Inhibition Concentration
# From the text: as §1
# S.milleri O2milGR12 = experiment: MIC micro-dilutions test; assay type: cell-based; conditions: S.milleri O2milGR12, ery S van S; Gram-positive; read-out: Minimum Inhibition Concentration
# From the text: as §1
compound,measurement,setting,value
C/C(=C\CC(O)CC(O)CCC(C)C(O)C(C)C(O)CCCC(O)C(C)C(O)/C(C)=C/C(C)C(=O)/C(C)=C/C(O)C(O)CC(O)CC(O)C(C)CCC(O)CC(O)CCC(C)C(O)C(C)C(O)C(C)C)C(=O)C1=C(O)/C(=C/C(C)C)N(C)C1=O (stereo not drawn) [Amycomycin],MIC,"E.faecalis O2D2DU18; E.faecalis O2D2DU18, tet R nov R, Gram-positive, read-out: Minimum Inhibition Concentration",1.2 µg/mL
same,MIC,"E.faecalis O2D2HM9; E.faecalis O2D2HM9, nov R van B ery R tei S, Gram-positive, read-out: Minimum Inhibition Concentration",2.5 µg/mL
same,MIC,"E.faecalis O2D2HT10; E.faecalis O2D2HT10, nov R van S tet R, Gram-positive, read-out: Minimum Inhibition Concentration",1.2 µg/mL
same,MIC,"E.faecalis O2D2UC5; ATCC29212, E.faecalis O2D2UC5, ATCC 29212 nov R, Gram-positive, read-out: Minimum Inhibition Concentration",2.5 µg/mL
same,MIC,"E.faecium O2D3AP9; E.faecium O2D3AP9, nov S van R ery S tei R, Gram-positive, read-out: Minimum Inhibition Concentration",0.6 µg/mL
same,MIC,"E.faecium O2D3HM3; E.faecium O2D3HM3, nov S van A ery R tei R, Gram-positive, read-out: Minimum Inhibition Concentration",1.2 µg/mL
same,MIC,"E.faecium O2D3HT12; E.faecium O2D3HT12, tei R van R ery R tet R, Gram-positive, read-out: Minimum Inhibition Concentration",0.6 µg/mL
same,MIC,"E.gallinarium O2D0HM8; E.gallinarium O2D0HM8, van C tet R ery S, Gram-positive",1.2 µg/mL
same,MIC,P.aeruginosa 1771 391HT2,> 40 µg/mL
same,MIC,[1],> 40 µg/mL
same,MIC,"S.aureus 011CB20; S.aureus 011CB20, oxa R ery Rc tet R, Gram-positive, read-out: Minimum Inhibition Concentration",0.08 µg/mL
same,MIC,"S.aureus 011DU5; S.aureus 011DU5, nov R tet R, Gram-positive, read-out: Minimum Inhibition Concentration",0.08 µg/mL
same,MIC,"S.aureus 011GO64; S.aureus 011GO64, ofl R oxa R ery Rc tet R, Gram-positive, read-out: Minimum Inhibition Concentration",0.3 µg/mL
same,MIC,"S.aureus 011GO71; S.aureus 011GO71, ofl S oxa R ery S tet R, Gram-positive, read-out: Minimum Inhibition Concentration",0.15 µg/mL
same,MIC,"S.aureus 011GR91; S.aureus 011GR91, pri R oxa R ery R nov R, Gram-positive, read-out: Minimum Inhibition Concentration",1.2 µg/mL
same,MIC,"S.aureus 011HT18; ATCC13709, S.aureus 011HT18, ATCC 13709 Smith, Gram-positive, read-out: Minimum Inhibition Concentration",0.08 µg/mL
same,MIC,"S.aureus 011HT1; S.aureus 011HT1, nov R, Gram-positive, read-out: Minimum Inhibition Concentration",≤ 0.04 µg/mL
same,MIC,"S.aureus 011HT3; S.aureus 011HT3, oxa S ery S, Gram-positive, read-out: Minimum Inhibition Concentration",0.08 µg/mL
same,MIC,S.epidermidis 012GO20,0.3 µg/mL
same,MIC,S.epidermidis 012GO42,0.3 µg/mL
same,MIC,"S.mitis O2mitGR16; S.mitis O2mitGR16, ery Ri van S, Gram-positive, read-out: Minimum Inhibition Concentration",1.2 µg/mL
same,MIC,"S.pneumoniae 030BI2; S.pneumoniae 030BI2, ery R, Gram-positive, read-out: Minimum Inhibition Concentration",0.15 µg/mL
same,MIC,"S.pyogenes O2A1FI6; S.pyogenes O2A1FI6, ery R, Gram-positive, read-out: Minimum Inhibition Concentration",0.6 µg/mL
same,MIC,"S.pyogenes O2A1SJ1; S.pyogenes O2A1SJ1, van S ery Rc, Gram-positive, read-out: Minimum Inhibition Concentration",0.3 µg/mL
same,MIC,"S.pyogenes O2A1UC1; S.pyogenes O2A1UC1, van S ery S, Gram-positive, read-out: Minimum Inhibition Concentration",0.6 µg/mL
same,MIC,"[2]; Staph.coag.negative 012HT5, ofl R oxa R tet R, Gram-positive",0.15 µg/mL
same,MIC,"Strepto gr.G O2G0CB2; Strepto gr.G O2G0CB2, tet R rif R nov R, Gram-positive",0.6 µg/mL
same,Solubility (Appearance),[3],"colorless solid, soluble in methanol, DMSO,"
same,antibacterial activity,[4],extraordinary antibacterial activity
"CN[C@H](CC(C)C)C(=O)N[C@H]1C(=O)N[C@@H](CC(N)=O)C(=O)N[C@H]2C(=O)N[C@H]3C(=O)N[C@H](C(=O)N[C@H](C(=O)O)c4cc(O)cc(O)c4-c4cc3ccc4O)[C@H](O)c3ccc(c(Cl)c3)Oc3cc2cc(c3O[C@@H]2O[C@H](CO)[C@@H](O)[C@H](O)[C@H]2O[C@H]2C[C@](C)(N)[C@H](O)[C@H](C)O2)Oc2ccc(cc2Cl)[C@H]1O [Vancomycin, reference compound]",MIC,"E.faecalis O2D2DU18; O2D2DU18, read-out: Minimum Inhibition Concentration",0.3 µg/mL
same,MIC,"E.faecalis O2D2HM9; O2D2HM9, read-out: Minimum Inhibition Concentration",> 40 µg/mL
same,MIC,"E.faecalis O2D2HT10; O2D2HT10, read-out: Minimum Inhibition Concentration",0.6 µg/mL
same,MIC,"E.faecalis O2D2UC5; ATCC29212, read-out: Minimum Inhibition Concentration",2.5 µg/mL
same,MIC,"E.faecium O2D3AP9; O2D3AP9, read-out: Minimum Inhibition Concentration",> 40 µg/mL
same,MIC,"E.faecium O2D3HM3; O2D3HM3, read-out: Minimum Inhibition Concentration",> 40 µg/mL
same,MIC,"E.faecium O2D3HT12; O2D3HT12, read-out: Minimum Inhibition Concentration",> 40 µg/mL
same,MIC,E.faecium O2D3IP2,> 40 µg/mL
same,MIC,E.gallinarium O2D0HM8,> 40 µg/mL
same,MIC,"S.aureus 011CB20; 011CB20, read-out: Minimum Inhibition Concentration",0.15 µg/mL
same,MIC,"S.aureus 011DU5; 011DU5, read-out: Minimum Inhibition Concentration",0.15 µg/mL
same,MIC,"S.aureus 011GO64; 011GO64, read-out: Minimum Inhibition Concentration",1.2 µg/mL
same,MIC,"S.aureus 011GO71; 011GO71, read-out: Minimum Inhibition Concentration",0.6 µg/mL
same,MIC,"S.aureus 011GR91; 011GR91, read-out: Minimum Inhibition Concentration",1.2 µg/mL
same,MIC,"S.aureus 011HT18; ATCC13709, read-out: Minimum Inhibition Concentration",0.3 µg/mL
same,MIC,"S.aureus 011HT1; 011HT1, read-out: Minimum Inhibition Concentration",0.08 µg/mL
same,MIC,"S.aureus 011HT3; 011HT3, read-out: Minimum Inhibition Concentration",0.3 µg/mL
same,MIC,S.milleri O2milGR12,0.3 µg/mL
same,MIC,"S.mitis O2mitGR16; O2MITGR16, read-out: Minimum Inhibition Concentration",0.3 µg/mL
same,MIC,"S.pneumoniae 030BI2; 030BI2, read-out: Minimum Inhibition Concentration",0.15 µg/mL
same,MIC,"S.pyogenes O2A1FI6; O2A1FI6, read-out: Minimum Inhibition Concentration",0.08 µg/mL
same,MIC,"S.pyogenes O2A1SJ1; O2A1SJ1, read-out: Minimum Inhibition Concentration",0.15 µg/mL
same,MIC,"S.pyogenes O2A1UC1; O2A1UC1, read-out: Minimum Inhibition Concentration",0.15 µg/mL
same,MIC,[2],0.6 µg/mL
same,MIC,Strepto gr.G O2G0CB2,0.15 µg/mL
